Experimental data published in patent publication US20030186345A1, “Macromolecular enzyme substrates” (priority 2003, published 2003).

How the values were obtained:
salivary amylase [1] = target: T1, salivary amylase (Homo sapiens, UniProt P0DUB6); assay: Amylase assay, Km determination, salivary amylase; assay type: biochemical
T1 construct: purchased Sigma (St. Louis, Mo.)
T1 sequence (P0DUB6 16-511): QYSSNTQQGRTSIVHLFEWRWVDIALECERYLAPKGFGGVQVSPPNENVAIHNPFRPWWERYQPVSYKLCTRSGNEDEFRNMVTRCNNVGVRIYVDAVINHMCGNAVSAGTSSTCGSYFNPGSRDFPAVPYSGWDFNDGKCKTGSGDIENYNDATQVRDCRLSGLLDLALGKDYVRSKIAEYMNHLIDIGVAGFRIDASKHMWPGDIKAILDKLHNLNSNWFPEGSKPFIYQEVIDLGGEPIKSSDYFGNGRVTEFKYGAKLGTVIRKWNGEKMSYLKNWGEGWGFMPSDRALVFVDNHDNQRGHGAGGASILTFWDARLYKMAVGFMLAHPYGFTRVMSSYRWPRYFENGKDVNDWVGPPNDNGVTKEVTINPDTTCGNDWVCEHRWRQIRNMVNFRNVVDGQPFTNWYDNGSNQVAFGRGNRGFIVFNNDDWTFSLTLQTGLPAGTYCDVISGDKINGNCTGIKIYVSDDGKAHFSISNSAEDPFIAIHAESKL
Description: (§1) Amylase assays using oligosaccharide substrates were automated using a Cobas Fara analyzer (Roche, Basel, Switzerland). Unless indicated, assay temperature was 37° C., and absorbance changes were measured at 405 nm every minute over a 20 minute period. Assay buffer was either 52.5 mmol/L 4-(2-hydroxyethyl)-1-piperazine-ethanesulfonic acid (HEPES) buffer, pH 7.15, 87 mmol/L sodium chloride, 12.6 mmol/L magnesium chloride, 0.075 mmol/L calcium chloride (HEPES buffer) or 50 mmol/L MES, pH 6.0, 350 mmol/L sodium chloride, 6 mmol/L calcium acetate, 900 mmol/L KSCN (MES buffer). Amylases were diluted into assay buffer containing 1 mg/mL rabbit albumin. Final reaction volumes were 200 μL and consisted of 3 solutions, R1, R2, and R3. […] Depending upon the assay, R2 and R3 contained either amylase or substrate. R1 and R2 solutions were mixed for 10 seconds prior to the addition of R3. For immunoinhibition studies, antibodies were preincubated with amylase (R2) for 30 minutes at room temperature prior to the addition of substrate (R3). Unless indicated, final concentrations of MABs were 10 mg/L. Reaction blanks were determined by measuring the absorbance of substrate or enzyme alone at 405 nm. When EtG7pNP or mPEG-EtG7pNP were used as substrates, α-glucosidase was included in the blank measurement. Differences between the test samples and reagent blanks were determined. Activity of stock solutions of amylase was based on activity measured with a Hitachi 917 analyzer using a Roche kit (Cat. No 1876473) (Indianapolis, Ind.) which uses EtG7pNP as the substrate. For Km determinations, 4 or 5 different substrate concentrations (0.05 mmol/L to 6 mmol/L) with salivary (4-20 U/L) or pancreatic (4-40 U/L) amylase were used.

pancreatic amylase [2] = target: T2, pancreatic amylase (Homo sapiens, UniProt P04746); assay: Amylase assay, Km determination, pancreatic amylase; assay type: biochemical
T2 construct: purchased Scripps Laboratories (San Diego, Calif.)
T2 sequence (P04746 16-511): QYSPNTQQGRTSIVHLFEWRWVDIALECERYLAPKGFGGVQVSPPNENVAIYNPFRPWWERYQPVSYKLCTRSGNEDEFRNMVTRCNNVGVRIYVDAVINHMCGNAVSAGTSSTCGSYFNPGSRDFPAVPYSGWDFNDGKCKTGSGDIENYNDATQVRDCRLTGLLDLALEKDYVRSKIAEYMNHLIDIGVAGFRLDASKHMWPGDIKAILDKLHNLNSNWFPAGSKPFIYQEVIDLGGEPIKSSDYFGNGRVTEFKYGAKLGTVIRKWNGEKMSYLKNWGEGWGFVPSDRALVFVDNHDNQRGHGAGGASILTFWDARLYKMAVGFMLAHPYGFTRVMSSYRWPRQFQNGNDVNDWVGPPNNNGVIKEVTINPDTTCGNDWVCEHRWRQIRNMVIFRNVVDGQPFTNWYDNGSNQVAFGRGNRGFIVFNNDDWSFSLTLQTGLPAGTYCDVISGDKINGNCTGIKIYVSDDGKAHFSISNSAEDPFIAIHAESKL
Description: as §1, with “Assay buffer was either 52.5 mmol/L 4-(2-hydroxyethyl)-1-piperazine-ethanesulfonic acid (HEPES) buffer, pH 7.15, 87 mmol/L sodium chloride, 12.6 mmol/L magnesium chloride, 0.075 mmol/L calcium chloride (HEPES buffer) or 50 mmol/L MES, pH 6.0, 350 mmol/L sodium chloride, 6 mmol/L calcium acetate, 900 mmol/L KSCN (MES buffer).” left out

salivary amylase [3] = target: T1, salivary amylase; assay: Extent of cleavage of substrates by excess salivary amylase; assay type: biochemical
Description: Substrates were diluted into HEPES buffer and absorbances were recorded between 250 nm and 500 nm. To determine the maximum amount of substrate that could be cleaved with amylase, substrates were incubated with 60 units/mL of salivary amylase. When EtG7pNP and mPEG-EtG7pNP were used, 4 units/mL of α-glucosidase were included in the incubation.
To determine the maximal amount of mPEG-coupled and uncoupled substrate that could be cleaved by amylase, substrates were incubated with excess salivary amylase and the amount of free chromophore released was determined by measuring absorptions between 250 nm and 500 nm during amylase digestion. […] Incubations were monitored until endpoints of reactions were approached. α-Glucosidase was included in the incubation when EtG7pNP and mPEG-EtG7pNP were used as substrates.

salivary amylase [4] = target: T1, salivary amylase; assay: Immunoinhibition by polyclonal antiamylase antisera, salivary amylase; assay type: biochemical
Description: (§2) Amylase assays using oligosaccharide substrates were automated using a Cobas Fara analyzer (Roche, Basel, Switzerland). Unless indicated, assay temperature was 37° C., and absorbance changes were measured at 405 nm every minute over a 20 minute period. Assay buffer was either 52.5 mmol/L 4-(2-hydroxyethyl)-1-piperazine-ethanesulfonic acid (HEPES) buffer, pH 7.15, 87 mmol/L sodium chloride, 12.6 mmol/L magnesium chloride, 0.075 mmol/L calcium chloride (HEPES buffer) or 50 mmol/L MES, pH 6.0, 350 mmol/L sodium chloride, 6 mmol/L calcium acetate, 900 mmol/L KSCN (MES buffer). Amylases were diluted into assay buffer containing 1 mg/mL rabbit albumin. […] Unless indicated, final concentrations of MABs were 10 mg/L. Reaction blanks were determined by measuring the absorbance of substrate or enzyme alone at 405 nm. […] Differences between the test samples and reagent blanks were determined. Activity of stock solutions of amylase was based on activity measured with a Hitachi 917 analyzer using a Roche kit (Cat. No 1876473) (Indianapolis, Ind.) which uses EtG7pNP as the substrate. […]
(§3) The effects of two different polyclonal antiamylase immunoglobulin preparations on salivary and pancreatic amylase activity using mPEG-coupled and uncoupled substrates were tested. […] 100% amylase activity was determined in the absence of any antibody.

pancreatic amylase [5] = target: T2, pancreatic amylase; assay: Immunoinhibition by polyclonal antiamylase antisera, pancreatic amylase; assay type: biochemical
Description: as §2, §3

salivary amylase [6] = target: T1, salivary amylase; assay: Immunoinhibition by MABs, salivary amylase, oligosaccharide substrates; assay type: biochemical; conditions: salivary isoenzyme, 20 U/I (G5, G7 substrates) or 600 U/I (G3 substrates), 100% = no MAB; for % activity with MAB 66C7 / % activity with MAB 88E8: MAB 10 mg/L
Description: as §1
When both MABs were used, MAB 88E8 concentrations were varied in the presence of 10 mg/L MAB 66C7. At an antibody concentration of 10 mg/L, MAB 88E8 inhibits 98% of salivary amylase activity in HEPES buffer and 34% of salivary amylase activity in MES buffer. MAB 66C7 increases salivary amylase activity in HEPES buffer and has no effect on salivary amylase activity in MES buffer. Using a mixture of MABs 88E8 and 66C7 at concentrations of […], >99% of salivary amylase activity is inhibited in HEPES buffer and 73% of salivary amylase activity is inhibited in MES buffer. When the pH of the MES buffer was increased from 6.0 to 6.5 and the concentration of KSCN was decreased from 900 mmol/L to 300 mmol/L, >97% of salivary amylase activity was inhibited by MAB 88E8.

pancreatic amylase [7] = target: T2, pancreatic amylase; assay: Immunoinhibition by MABs, pancreatic amylase, oligosaccharide substrates; assay type: biochemical; conditions: pancreatic isoenzyme, 40 U/I (G5, G7 substrates) or 400 U/I (G3 substrates), 100% = no MAB; for % activity with MAB 66C7 / % activity with MAB 88E8: MAB 10 mg/L
Description: as §1

[8] = system: pancreatic and salivary amylase; assay: Lag phase of amylase reaction; assay type: biochemical, human; conditions: purified pancreatic and salivary amylase; Cobas Fara analyzer
Description: as §2, with “albumin. Final reaction volumes were 200 μL and consisted of 3 solutions, R1, R2, and R3. […] Depending upon the assay, R2 and R3 contained either amylase or substrate. R1 and R2 solutions were mixed for 10 seconds prior to the addition of R3.” for “albumin.”

[9] = 37° C., pH 6.5 in MES buffer containing 300 mM KSCN

Row | Substrate cleaved by salivary amylase and α-glucosidase (salivary amylase [3]; digestion for 60 minutes) | Fold lower concentration of antibody inhibiting cleavage than for G3ClpNP (salivary amylase [4]) | Fold lower concentration of antibody inhibiting cleavage than for G3ClpNP (pancreatic amylase [5]) | SMILES | Km (salivary amylase [1]; 37° C., HEPES buffer pH 7.15) | Km (pancreatic amylase [2]; 37° C., HEPES buffer pH 7.15) | % activity with MAB 88E8 + 66C7 (salivary amylase [6]) | % activity with MAB 66C7 (salivary amylase [6]) | % activity with MAB 88E8 (salivary amylase [6]) | % activity with MAB 88E8 + 66C7 (pancreatic amylase [7]) | % activity with MAB 66C7 (pancreatic amylase [7]) | % activity with MAB 88E8 (pancreatic amylase [7]) | Km (salivary amylase [1]; 25° C., HEPES buffer pH 7.15) | Km (salivary amylase [1]; [9]) | Km (pancreatic amylase [2]; 25° C., HEPES buffer pH 7.15) | Km (pancreatic amylase [2]; [9]) | CNP released by salivary amylase (salivary amylase [3]; excess salivary amylase, 40 minutes at room temperature) | Lag phase, time to reach maximal rates [8]
1 | ~90% | > 50 fold | ~3 fold | CC1OC[C@H]2O[C@H](O[C@H]3[C@H](O)[C@@H](O)[C@@H](O[C@H]4[C@H](O)[C@@H](O)[C@@H](O[C@H]5[C@H](O)[C@@H](O)[C@@H](O[C@H]6[C@H](O)[C@@H](O)[C@@H](O[C@H]7[C@H](O)[C@@H](O)[C@@H](O[C@H]8[C@H](O)[C@@H](O)[C@@H](Oc9ccc([N+](=O)[O-])cc9)O[C@@H]8CO)O[C@@H]7CO)O[C@@H]6CO)O[C@@H]5CO)O[C@@H]4CO)O[C@@H]3CO)[C@H](O)[C@@H](O)[C@@H]2O1 (stereo partly drawn) [EtG7pNP, 4,6-O-ethylidene p-nitrophenyl-α-D-maltoheptaoside] | 130 µM | 170 µM | 2% | 105% | 6% | 96% | 105% | 96% | – | – | – | – | – | –
2 | – | – | – | O=[N+]([O-])c1ccc(O[C@H]2O[C@H](CO)[C@@H](O[C@H]3O[C@H](CO)[C@@H](O[C@H]4O[C@H](CO)[C@@H](O)[C@H](O)[C@H]4O)[C@H](O)[C@H]3O)[C@H](O)[C@H]2O)c(Cl)c1 [Substrate G3ClpNP, 2-chloro-p-nitrophenol-α-D-maltotrioside] | 6900 µM | 2200 µM | 1% | 104% | 3% | 103% | 117% | 103% | 4600 µM | 2000 µM | 1300 µM | 610 µM | ~90% | little or no lag phase
